Data on ten compounds can be found in ChEMBL document CHEMBL1201862, “PubChem BioAssay data set” (2004).

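Step 1: Grow cells in 96-well plates. Step 2: Expose to compound for 48 hours at 5 concentrations. Step 3: Interpolate endpoints linearly; if unreached, use highest concentration. Abbreviation: GI50, concentration required for 50% inhibition of growth.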 Activity calls are given as the source filed them. Rule as the data show it: active = GI50 up to about 1.1 µM and inactive = higher.

Common to all, as to experiment: DTP human tumour cell line panel, 48 h
In assay [1] the test system is A549.
Assay [2] deals with CCRF-CEM.
Assay [3] has as its system DU-145.
Assay [4] relates to EKVX.
Assay [5] concerns HCC 2998.
For assay [6], the system named is HL-60.
The test system of assay [7] is IGROV-1.
For assay [8], the system named is LOX IMVI.
In assay [9] the test system is MDA-N.
For assay [10], the system named is OVCAR-4.
Assay [11] deals with RPMI-8226.
In assay [12] the test system is SF-268.
Assay [13] concerns SF-539.
Assay [14] relates to SK-MEL-28.
Assay [15] relates to SK-OV-3.
The test system of assay [16] is SN12C.
For assay [17], the system named is SW-620.
Assay [18] deals with U-251.
Assay [19] deals with UO-31.

Broadly, the GI50 is the concentration that inhibits growth by half. As to `CCCCCCCCCCCCCCCC[N+](C)(C)CCl`, the GI50 was 5 µM (inactive) in assay [1]; 1.15 µM (inactive) in [2]; 3.78 µM (inactive) in [3]; 8.61 µM (inactive) in assay [4]; 1.66 µM (inactive) in [5]; 0.964 µM (active) in assay [6]. The GI50 is 0.585 µM (active) in assay [7]; 1.51 µM (inactive) in assay [8]; 3.72 µM (inactive) in [9]; 2.86 µM (inactive) in [10]; 1.76 µM (inactive) in [11]; 2.74 µM (inactive) in [12]. Further, the GI50 in assay [13] is 2.4 µM (inactive); in assay [14], 5.19 µM (inactive); in assay [15], 6.87 µM (inactive); in assay [16], 3.19 µM (inactive); in [17], 2.69 µM (inactive); in assay [18] it was 1.68 µM (inactive). The GI50 in assay [19] is 11.1 µM (inactive).

For the compound `CCC(C)N1CN(c2ccccc2)C2(CCN(CCCC3(c4ccc(F)cc4)OCCO3)CC2)C1=O` (stereo not drawn), the GI50 in [1] is 7.73 µM (inactive); in assay [2], 3.6 µM (inactive); in assay [3], 17.6 µM (inactive); in [4], 6.14 µM (inactive); in assay [5], 12.9 µM (inactive); in assay [6], 6.47 µM (inactive). For the same compound, the GI50 is 16.5 µM (inactive) in [7]; 7.73 µM (inactive) in assay [8]; 7.14 µM (inactive) in assay [9]; 22.6 µM (inactive) in [10]; 1.89 µM (inactive) in [11]; 17.7 µM (inactive) in [12]. The GI50 in assay [13] was 5.5 µM (inactive); in assay [14], 17.6 µM (inactive); in assay [15] it was 21 µM (inactive); in assay [16] it was 7.24 µM (inactive); in assay [17] it was 11.6 µM (inactive); in assay [18], 5.86 µM (inactive). Further, the GI50 in [19] is 5.09 µM (inactive).

On to `Cn1c(=O)[nH]c2nccnc2c1=O`, for which the GI50 in [1], in assay [2], in assay [3], in [4], in [5] and in assay [6] was > 10 µM (inactive) in each case. Also, the GI50 in assay [7], in assay [8], in assay [9], in assay [10], in assay [11] and in [12] was > 10 µM (inactive) throughout. Moreover, the GI50 in assay [13], in assay [14], in [15], in assay [16], in assay [17] and in assay [18] was > 10 µM (inactive) throughout. For the same compound, in [19], the GI50 is > 10 µM (inactive).

For `O=c1[nH]c2cc3cccnc3c(Cl)c2nc1C(F)(F)F`, the GI50 in assay [1] was 41.4 µM (inactive); in assay [2] it was 28.1 µM (inactive); in [3], 54.8 µM (inactive); in [4], 9.91 µM (inactive); in assay [5], 42 µM (inactive); in assay [6] it was 32.9 µM (inactive). The GI50 in assay [7] is 12.6 µM (inactive); in assay [8], 32.4 µM (inactive); in assay [9], 37.2 µM (inactive); in assay [10], 21.8 µM (inactive); in assay [11] it was 26.5 µM (inactive); in assay [12], 60.7 µM (inactive). In addition, the GI50 in assay [13] is 40.6 µM (inactive); in assay [14], 62.8 µM (inactive); in [15] it was 57.3 µM (inactive); in assay [16], 75.5 µM (inactive); in [17] it was > 100 µM (inactive); in assay [18], 50.8 µM (inactive). Moreover, in [19], the GI50 was 27.7 µM (inactive).

For the compound `Cc1nc2ccccc2c(=O)n1NC(=O)c1ccccc1O`, the GI50 in [1], in assay [2], in assay [3], in assay [4], in assay [5] and in [6] was > 100 µM (inactive) each time. In addition, the GI50 in assay [7], in [8], in assay [9], in assay [10], in assay [11] and in assay [12] was > 100 µM (inactive) each time. In addition, the GI50 in assay [13], in assay [14], in assay [15], in [16], in assay [17] and in [18] was > 100 µM (inactive) throughout. Moreover, the GI50 in assay [19] is > 100 µM (inactive).

In the case of `CNC1=C/C(=N/C2=CC(=N/C(=C\C#N)C(C)(C)O)/OC2(C)C)OC1(C)C`, the GI50 is 15.5 µM (inactive) in assay [1]; 3.08 µM (inactive) in assay [2]; 12 µM (inactive) in [3]; 13.7 µM (inactive) in [4]; 29.2 µM (inactive) in assay [5]; 2.01 µM (inactive) in assay [6]. Besides, the GI50 in assay [7] was 6.52 µM (inactive); in [8] it was 5.51 µM (inactive); in assay [9], 21.3 µM (inactive); in assay [10], 27.2 µM (inactive); in assay [11] it was 4.43 µM (inactive); in [12], 4.31 µM (inactive). In addition, the GI50 in [13] is 33.1 µM (inactive); in assay [14] it was 33.2 µM (inactive); in assay [15] it was 17.1 µM (inactive); in assay [16], 14.5 µM (inactive); in assay [17], 5.4 µM (inactive); in [18], 7.1 µM (inactive). Besides, the GI50 in assay [19] was 5.77 µM (inactive).

Turning to `NCCCN1CCN(CCCNc2ccc3nnn4c5ccccc5c(=O)c2c34)CC1`, the GI50 in assay [1] was 28.2 µM (inactive); in assay [2] it was 9.91 µM (inactive); in assay [3], 14.9 µM (inactive); in [4] it was 19.9 µM (inactive); in [5] it was 11.9 µM (inactive); in assay [6] it was 8.59 µM (inactive). For the same compound, the GI50 in assay [7] is 13.5 µM (inactive); in assay [8], 8.32 µM (inactive); in assay [9], 16.2 µM (inactive); in [10], 11.8 µM (inactive); in assay [11], 21.8 µM (inactive); in assay [12], 31.3 µM (inactive). The GI50 was 13.9 µM (inactive) in [13]; > 100 µM (inactive) in assay [14]; 57.4 µM (inactive) in [15]; 9.02 µM (inactive) in assay [16]; 11 µM (inactive) in assay [17]; 24 µM (inactive) in [18]. For the same compound, in assay [19], the GI50 is 22.1 µM (inactive).

On to `COC(=O)/C=C(/C(=O)OC)c1c(C)c(C)c2c(C)cc(C)cc(C)c1-2`, for which the GI50 in assay [1] is 20.6 µM (inactive); in [2] it was > 100 µM (inactive); in [3], 36.9 µM (inactive); in assay [4], 59.7 µM (inactive); in [5], 21.3 µM (inactive); in [6], > 100 µM (inactive). Further, the GI50 was 37.9 µM (inactive) in assay [7]; 28.7 µM (inactive) in assay [8]; 2.24 µM (inactive) in assay [9]; 76.2 µM (inactive) in [10]; > 100 µM (inactive) in assay [11]; > 100 µM (inactive) in assay [12]. The GI50 is 29.4 µM (inactive) in assay [13]; 33.1 µM (inactive) in assay [14]; 18.2 µM (inactive) in assay [15]; 38.8 µM (inactive) in [16]; 17.1 µM (inactive) in assay [17]; 26.9 µM (inactive) in assay [18]. In addition, the GI50 in assay [19] is 13.6 µM (inactive).

On to `CC[C@H](C)[C@H]1NC(=O)[C@@H](NC(=O)[C@@H](CC(C)C)N(C)C(=O)C2CCCN2C(=O)[C@H](C)O)[C@@H](C)OC(=O)[C@H](Cc2ccc(OC)cc2)N(C)C(=O)[C@@H]2CCCN2C(=O)[C@H](CCCCNC(=O)OCc2ccccc2)NC(=O)[C@H](C)C(=O)[C@H](C(C)C)OC(=O)C[C@@H]1O` (stereo partly drawn), for which the GI50 is 3.9 µM (inactive) in assay [1]; 6.46 µM (inactive) in [2]; 9.84 µM (inactive) in [3]; 5.38 µM (inactive) in assay [4]; 2.73 µM (inactive) in assay [5]; > 25 µM (inactive) in assay [6]. Moreover, the GI50 was 7.74 µM (inactive) in assay [7]; 7.4 µM (inactive) in assay [8]; 5.68 µM (inactive) in assay [9]; 5.47 µM (inactive) in assay [10]; 4.17 µM (inactive) in assay [11]; 3.91 µM (inactive) in assay [12]. Also, the GI50 is 12.8 µM (inactive) in assay [13]; 12.2 µM (inactive) in assay [14]; 7.69 µM (inactive) in assay [15]; 5.64 µM (inactive) in assay [16]; 7.74 µM (inactive) in [17]; 3.55 µM (inactive) in [18]. The GI50 in assay [19] was 23.4 µM (inactive).

In the case of `COC(=O)C(CCCCN)NC(C)=O.Cc1ccc(C(=O)Nc2ccc(S(=O)(=O)O)c3cc(S(=O)(=O)O)cc(S(=O)(=O)O)c23)cc1NC(=O)c1cccc(NC(=O)Nc2cccc(C(=O)Nc3cc(C(=O)Nc4ccc(S(=O)(=O)O)c5cc(S(=O)(=O)O)cc(S(=O)(=O)O)c45)ccc3C)c2)c1`, the GI50 in assay [1] is > 50 µM (inactive); in assay [2], > 50 µM (inactive); in assay [3] it was > 50 µM (inactive); in [5], > 50 µM (inactive); in assay [6] it was > 50 µM (inactive); in assay [8], 44.8 µM (inactive). The GI50 is > 50 µM (inactive) in assay [9]; 0.5 µM (active) in [10]; > 50 µM (inactive) in [11]; > 50 µM (inactive) in assay [12]; > 50 µM (inactive) in [13]; > 50 µM (inactive) in assay [14]. Further, the GI50 in assay [15], in assay [16], in [17], in assay [18] and in [19] was > 50 µM (inactive) each time.
